The source made the active and inactive calls. No cut-off for these calls is given here.

Test [1] addresses Replicase polyprotein 1ab (Severe acute respiratory syndrome coronavirus 2) (UniProt P0DTD1). The test can be described thus: Inhibition of SARS-CoV-2 MPro at 10 uM incubated for 5 mins by FRET assay.
Test [2] concerns J774.1. The test is described as follows: Anti-inflammatory activity against mouse J774A.1 macrophage assessed as reduction in LPS-induced LDH release at 10 uM incubated for 1 hr in presence of nigericin by LDH assay. It counts as functional, cell-based. Background: LDH in the medium is a marker of cell lysis.
The test system of test [3] is J774.1. The test can be described thus: Anti-inflammatory activity against mouse J774A.1 macrophage assessed as reduction in LPS-induced LDH release incubated for 1 hr in presence of nigericin by LDH assay. Type of test: functional, cell-based. The note with it: J774.1, 1 h.
In test [4] the test system is J774.1. The test is described as follows: Anti-inflammatory activity against mouse J774A.1 macrophage assessed as reduction in LPS-induced pyroptosis cells at 0.625 to 2.5 uM incubated for 1 hr in presence of nigericin by PI/Hoechst 33342 staining based inverted fluorescence microscopic analysis. The note with it: dose 0.625-2.5 µM, DDE = dose-dependent effect. Type of test: functional, cell-based.

Test [5] concerns J774.1. The test can be described thus: Anti-inflammatory activity against mouse J774A.1 macrophage assessed as reduction in LPS-induced IL-1beta maturation at 0.625 to 2.5 uM incubated for 1 hr in presence of nigericin by Western blot analysis. Type of test: functional, cell-based. The note with it: dose 0.625-2.5 µM. (In general: A western blot detects proteins with antibodies after separation by electrophoresis.)

The test system of test [6] is J774.1. The test can be described thus: Anti-inflammatory activity against mouse J774A.1 macrophage assessed as reduction in LPS-induced cleaved casp-1 expression at 0.625 to 2.5 uM incubated for 1 hr in presence of nigericin by Western blot analysis. Type of test: functional, cell-based. The note with it: dose 0.625-2.5 µM.

`CC(C)=CCc1cc(C2=C(O)/C(=C/c3ccc4c(c3)CC(O)C(C)(C)O4)OC2=O)c(O)cc1O` (stereo not given): the inhibition result in test [1] and in test [2] was “Active” throughout. In test [3], the IC50 was found to be 2.8 µM.

As to `CC(C)=CCc1cc(C2=C(O)/C(=C/c3ccc(O)c(CC(O)C(C)(C)O)c3)OC2=O)c(O)cc1O` (stereo not given), the inhibition entry in test [1] and in test [2] was “Active” in each case. Moreover, in test [3], the IC50 was determined as 7.4 µM.

Take `CC1(C)Oc2ccc(/C=C3\OC(=O)C(c4cc5c(cc4O)OC(C)(C)C(O)C5)=C3O)cc2CC1O` (stereo not given): the inhibition result in test [1] is “Active”.

Take `CC(C)(O)C(O)Cc1cc(/C=C2\OC(=O)C(c3cc4c(cc3O)OC(C)(C)C(O)C4)=C2O)ccc1O` (stereo not given): the inhibition entry in test [1] was “Active”.

For the molecule `CC(C)=CCc1cc(/C=C2\OC(=O)C(c3cc(CCC(C)(C)O)c(O)cc3O)=C2O)ccc1O`, the inhibition entry in test [1] and in test [2] was “Active” in each case. The IC50 in test [3] was 3.3 µM.

For the molecule `CC(C)=CCc1cc(/C=C2\OC(=O)C(c3ccc(O)cc3O)=C2O)ccc1O`, the inhibition result in test [1] and in test [2] was “Active” each time. Further, the IC50 in test [3] was found to be 2.4 µM.

`CC(C)=CCc1cc(C2=C(O)/C(=C/c3ccc4c(c3)C[C@H](C(C)(C)O)O4)OC2=O)c(O)cc1O`: the inhibition entry in test [1] and in test [2] was “Active” throughout. Moreover, the IC50 in test [3] turned out to be 4.9 µM.

As to `CC(C)=CCc1cc(/C=C2\OC(=O)C(c3cc4c(cc3O)OC(C)(C)CC4)=C2O)ccc1O`, the inhibition entry in test [1] and in test [2] was “Active” throughout. The 50% inhibitory concentration (IC50) in test [3] amounted to 0.8 µM.

As to `CC(C)(O)C1Cc2cc(/C=C3\OC(=O)C(c4cc5c(cc4O)OC(C)(C)C(O)C5)=C3O)ccc2O1` (stereo not given), the inhibition result in test [1] and in test [2] was “Active” throughout. Besides, the Activity entry in test [4] is “Dde”. For the same molecule, the result in test [5] and in test [6] was Active. Moreover, the IC50 in test [3] turned out to be 0.7 µM.

For the molecule `CC(C)=CCc1cc(/C=C2\OC(=O)C(c3cc4c(cc3O)OC(C)(C)C(O)C4)=C2O)ccc1O` (stereo not given), the inhibition entry in test [1] and in test [2] was “Active” throughout. In addition, the half-inhibitory concentration (IC50) in test [3] stood at 4.2 µM.

With `CC(C)=CCc1cc(/C=C2\OC(=O)C(c3cc(CC=C(C)C)c(O)cc3O)=C2O)ccc1O`, the inhibition entry in test [1] and in test [2] was “Active” each time. Besides, the IC50 in test [3] came out at 3 µM.

`CC(C)=CCc1cc(C2=C(O)/C(=C/c3ccc(O)c(CCC(C)(C)O)c3)OC2=O)c(O)cc1O`: the inhibition result in test [1] and in test [2] was “Active” in each case. Moreover, the IC50 in test [3] came to 3.1 µM.

Broadly, the IC50 is the concentration at which inhibition is half-maximal.

The values above are taken from ChEMBL document CHEMBL5120789, “Aspulvins A-H, Aspulvinone Analogues with SARS-CoV-2 Mpro Inhibitory and Anti-inflammatory Activities from an Endophytic Cladosporium sp” (J Nat Prod, 2022).
